# Measurements reported in US20080261824A1, “Rationale, methods, and assays for identifying novel taste cell genes and salty taste receptor targets and assays using these identified genes or gene products” (Senomyx, Inc., priority 2006, published 2008).
# Experiments:
# [1] = system: perceived human salt intensity; assay: inventors' test of perceived human salt intensity; format: in vivo
# Excerpt: Unlike other mammals, amiloride has been reported to only slightly reduce the intensity of sodium chloride taste, i.e., by about 15-20% when used at concentrations that specifically modulate ENaC function (Halpern, B. P. (1998) Neuroscience and Behavioral Reviews. 23: 5-47). […] Thus, additional non-ENaC genes are likely involved in human salt taste.
# sodium chloride taste = settings: concentrations that specifically modulate ENaC function; cited from earlier work
structure (smiles),measurement,setting,value
NC(=Nc1ccccc1)NC(=O)c1nc(Cl)c(N)nc1N [phenamil],effect on perceived human salt intensity,"[1]; tested at 3000-fold above IC50 for alpha beta gamma ENaC (100-fold over IC50 for delta beta gamma ENaC), levels printed for benzamil",did not elicit a significant effect
N=C(N)NC(=O)c1nc(Cl)c(N)nc1N [amiloride],reduction of the intensity of sodium chloride taste,sodium chloride taste,15-20%
same,effect on perceived human salt intensity,[1]; tested at 300-fold above IC50 for alpha beta gamma ENaC (10-fold over IC50 for delta beta gamma ENaC),did not elicit a significant effect
